Patent US20220220106A1, “QUINOLINE COMPOUNDS AND PHARMACEUTICAL COMPOSITIONS AND USES THEREOF” (Academy of Military Medical Sciences, priority 2019, published 2022)

Assays:
[1] = system: Enterovirus 71 (EV71) H strain; assay: In vitro anti-EV71 activity (antiviral activity in RD cells, CellTiter-Glo); assay type: cell-based; details: for IC50: Enterovirus A, 96 h, EV71 H strain, RD cells, 4 days, CellTiter-Glo, read-out: IC50; for in vitro anti-EV71 activity, in words: EV71, RD cells
Experimental: According to the mass and molecular weight of the compound to be tested, the compound to be tested was dissolved to 100 mM (mmol/L) with DMSO.
Detection of Antiviral Activity:
(1) First, the compound to be tested was diluted to 800 μM with cell maintenance solution (DMEM+2% FBS, Gibco, catalog numbers: 11995-065, 1600-044), and three-fold gradient dilution was performed to prepare 10 concentrations in total. The diluted compound was added to a 96-well plate with white wall and transparent bottom, 50 μl per well. To both the cell control group and the virus control group, an equal volume of the cell maintenance solution was added.
(2) EV71 virus (purchased from ATCC) was taken out from the −80° C. refrigerator and equilibrated to room temperature.
(3) The virus seed was diluted with a virus growth solution (DMEM+2% FBS, Gibco, catalog numbers: 11995-065, 1600-044) to 100TCID50, the diluted virus seed was added to the 96-well plate of (1), with […] per well. The same volume of the virus growth solution was added to the cell control group.
(4) RD cells (purchased from ATCC) were inoculated at a concentration of 1*10^5/mL into the 96-well plate of (1), with 100 μL per well, to reach a final volume of 200 μL per well. The final concentration of drug was 0.25 times the initial concentration.
(5) RD cells were cultured at 37° C. for 4 days for testing.
(6) The Buffer of CellTiter-Glo® luminescent cell viability assay reagent (Promega) was mixed with the substrate in the dark to prepare a working solution.
(§1) (7) The culture medium in the plate was discarded, the plate was dried by patting, 100 μL of the detection reagent was added to each well, and the 96-well plate was shaken on an orbital shaker for 4 minutes to induce cell lysis. After keeping in the dark and subjecting to signal stabilization for 15 minutes, the chemiluminescence unit was detected by using MD5 microplate reader (Molecular Devices), and the plate reading program was performed according to the CellTiter-Glo preset program.
The inhibition rate-concentration curve was fitted to S-curve by using origin8.0 software to calculate the IC50 value of the compound to be tested.
(§2) The formula for calculating the inhibition rates of drug at different dilution degrees was as follows: inhibition rate (%)=(average value of cell control group−value of experimental group)/(average value of cell control group−minimum value of experimental group)*100
(§3) The inhibition rate-concentration curve was fitted to S-curve by using origin8.0 software, and the IC50 value of the compound to be tested was calculated. The same method was used to calculate the TD50 value, and the selection index SI=TD50/IC50 was calculated according to the half maximal inhibitory concentration IC50 and the median toxic dose TD50.

[2] = system: RD cells; assay: Detection of cytotoxicity in RD cells (CellTiter-Glo); assay type: cell-based; details: 4 days, CellTiter-Glo, median toxic dose
Experimental: Detection of Cytotoxicity:
(1) The compound to be tested was diluted to a concentration of 400 μM with the cell maintenance solution, and 3-fold gradient dilution was carried out to obtain 10 concentrations in total.
(2) The diluted compound was added to a 96-well plate with white wall and transparent bottom, with 100 μL per well. An equal volume of the cell maintenance solution was added to the cell control group.
(3) RD cells were inoculated into the above 96-well plate at a concentration of 1*10^5/mL, with 100 μL per well, to reach a final volume of 200 μL per well, and the final concentration of drug was 0.5 times the pretreatment concentration.
(4) The RD cells were cultured at 37° C. for 4 days for testing.
(5) The Buffer of CellTiter-Glo® luminescent cell viability assay reagent was mixed with the substrate in the dark to prepare a working solution.
as §1, with “(6)” for “(7)”, “detected,” for “detected by using MD5 microplate reader (Molecular Devices),”
as §2, §3

| Structure (SMILES) | IC50 [1] | TD50 [2] | melting point | in vitro anti-EV71 activity, in words [1] |
| --- | --- | --- | --- | --- |
| O=c1oc2cnc3ccc(-c4cnc5ccccc5c4)cc3c2n1-c1cccc(C(F)(F)F)c1 [HTL-5-32, 8-(3-quinolyl)-1-[3-(trifluoromethyl)phenyl]oxazolo[5,4-c]quinolin-2(1H)-one] | > 200 µM | 68.88 ± 0.13 µM | 242 to 244 °C |  |
| O=c1oc2cnc3ccc(-c4ccc(Cl)cc4)cc3c2n1-c1cccc(C(F)(F)F)c1 [HTL-5-33, 8-(4-chloro)phenyl-1-[3-(trifluoromethyl)phenyl]oxazolo[5,4-c]quinolin-2(1H)-one] | > 200 µM | >200 µM | 283 to 286 °C |  |
| CCCc1ccc(-c2ccc3ncc4oc(=O)n(-c5cccc(C(F)(F)F)c5)c4c3c2)cc1 [HTL-5-34, 8-(4-propyl)phenyl-1-[3-(trifluoromethyl)phenyl]oxazolo[5,4-c]quinolin-2(1H)-one] | > 200 µM | >200 µM | 220 to 221 °C |  |
| CC(C)c1ccc(-c2ccc3ncc4oc(=O)n(-c5cccc(C(F)(F)F)c5)c4c3c2)cc1 [HTL-5-35, 8-(4-isopropyl)phenyl-1-[3-(trifluoromethyl)phenyl]oxazolo[5,4-c]quinolin-2(1H)-one] | > 200 µM | 69.36 ± 0.28 µM | 219 to 220 °C |  |
| N#Cc1cncc(-c2ccc3ncc4oc(=O)n(-c5cccc(C(F)(F)F)c5)c4c3c2)c1 [HTL-5-36, 8-[3-(5-cyano)pyridyl]-1-[3-(trifluoromethyl)phenyl]oxazolo[5,4-c]quinolin-2(1H)-one] | > 200 µM | 13.41 ± 0.18 µM | 262 to 263 °C |  |
| Cc1ccc(Nc2ccc3ncc4ccc(=O)n(-c5cccc(C(F)(F)F)c5)c4c3c2)cc1C [HTL-6-17, 9-(3,4-dimethylphenyl)imino-2-oxo-1-[3-(trifluoromethyl)phenyl]-1,2-dihydrobenzo[h][1,6]naphthyridine] | > 200 µM | 6.81 ± 1.03 µM | 140 to 141 °C |  |
| CC(C)(C)c1ccc(Nc2ccc3ncc4ccc(=O)n(-c5cccc(C(F)(F)F)c5)c4c3c2)cc1 [HTL-6-18, 9-(4-tert-butylphenyl)imino-2-oxo-1-[3-(trifluoromethyl)phenyl]-1,2-dihydrobenzo[h][1,6]naphthyridine] | > 200 µM | 7.04 ± 0.68 µM | 141 to 142 °C |  |
| Cc1ccc(Nc2ccc3ncc4ccc(=O)n(-c5cccc(C(F)(F)F)c5)c4c3c2)cn1 [HTL-6-19, 9-[3-(6-methylpyridyl)]imino-2-oxo-1-[3-(trifluoromethyl)phenyl]-1,2-dihydrobenzo[h][1,6]naphthyridine] | > 200 µM | 22.62 ± 2.15 µM | 234 to 236 °C |  |
| O=c1ccc2cnc3ccc(Nc4ccc(F)nc4)cc3c2n1-c1cccc(C(F)(F)F)c1 [HTL-6-20, 9-[3-(6-fluoropyridyl)]imino-2-oxo-1-[3-(trifluoromethyl)phenyl]-1,2-dihydrobenzo[h][1,6]naphthyridine] | > 200 µM | 59.31 ± 3.98 µM | 232 to 233 °C |  |
| O=c1ccc2cnc3ccc(Nc4ccc(Cl)nc4)cc3c2n1-c1cccc(C(F)(F)F)c1 [HTL-6-21, 9-[3-(6-chloropyridyl)]imino-2-oxo-1-[3-(trifluoromethyl)phenyl]-1,2-dihydrobenzo[h][1,6]naphthyridine] | > 200 µM | 20.75 ± 2.11 µM | 137 to 138 °C |  |
| N#Cc1ccc(Nc2ccc3ncc4ccc(=O)n(-c5cccc(C(F)(F)F)c5)c4c3c2)cc1 [HTL-6-22, 9-(4-cyanophenyl)imino-2-oxo-1-[3-(trifluoromethyl)phenyl]-1,2-dihydrobenzo[h][1,6]naphthyridine] | > 200 µM | 6.95 ± 0.86 µM | 259 to 260 °C |  |
| O=c1ccc2cnc3ccc(Nc4ccc(F)cc4)cc3c2n1-c1cccc(C(F)(F)F)c1 [HTL-6-23, 9-(4-fluorophenyl)imino-2-oxo-1-[3-(trifluoromethyl)phenyl]-1,2-dihydrobenzo[h][1,6]naphthyridine] | > 200 µM | 7.22 ± 0.47 µM | 176 to 179 °C |  |
| Cc1cc(Nc2ccc3ncc4ccc(=O)n(-c5cccc(C(F)(F)F)c5)c4c3c2)ccc1F [HTL-6-24, 9-[(4-fluoro-3-methyl)phenyl]imino-2-oxo-1-[3-(trifluoromethyl)phenyl]-1,2-dihydrobenzo[h][1,6]naphthyridine] | > 200 µM | 7.2 ± 0.33 µM | 210 to 211 °C |  |
| O=c1ccc2cnc3ccc(Nc4ccc(Cl)cc4)cc3c2n1-c1cccc(C(F)(F)F)c1 [HTL-6-25, 9-(4-chlorophenyl)imino-2-oxo-1-[3-(trifluoromethyl)phenyl]-1,2-dihydrobenzo[h][1,6]naphthyridine] | > 200 µM | 4.56 ± 0.26 µM | 212 to 213 °C |  |
| COc1ccc(Nc2ccc3ncc4ccc(=O)n(-c5cccc(C(F)(F)F)c5)c4c3c2)cc1 [HTL-6-26, 9-(4-methoxyphenyl)imino-2-oxo-1-[3-(trifluoromethyl)phenyl]-1,2-dihydrobenzo[h][1,6]naphthyridine] | > 200 µM | >200 µM | 138 to 140 °C |  |
| CC(=O)Nc1ccc(Nc2ccc3ncc4ccc(=O)n(-c5cccc(C(F)(F)F)c5)c4c3c2)cc1 [HTL-6-27, 9-(4-acetylaminophenyl)imino-2-oxo-1-[3-(trifluoromethyl)phenyl]-1,2-dihydrobenzo[h][1,6]naphthyridine] | 7.14 ± 3.21 µM | 10.65 ± 0.57 µM | 175 to 177 °C | moderate activity |
| Nc1cncc(Nc2ccc3ncc4ccc(=O)n(-c5cccc(C(F)(F)F)c5)c4c3c2)n1 [HTL-6-28, 9-[2-(6-aminopyrazinyl)]imino-2-oxo-1-[3-(trifluoromethyl)phenyl]-1,2-dihydrobenzo[h][1,6]naphthyridine] | 3.7 ± 0.03 µM | 8.67 ± 0.97 µM | 192 to 194 °C | moderate activity |
| Nc1cncc(Nc2ccc3ncc4ccc(=O)n(-c5cccc(C(F)(F)F)c5)c4c3c2)c1 [HTL-6-29, 9-[3-(5-aminopyridyl)]imino-2-oxo-1-[3-(trifluoromethyl)phenyl]-1,2-dihydrobenzo[h][1,6]naphthyridine] | 1.75 ± 0.41 µM | 28.65 ± 1.67 µM | 156 to 158 °C | moderate activity |
| N#CC/C=C/c1ccc2ncc3oc(=O)n(-c4cccc(C(F)(F)F)c4)c3c2c1 [HTL-6-31, (E)-8-(3-cyano-propenyl)-1-[3-(trifluoromethyl)phenyl]oxazolo[5,4-c]quinolin-2(1H)-one] | > 200 µM | 9.20 ± 2.34 µM | 177 to 179 °C |  |
| N#C/C=C/c1ccc2ncc3oc(=O)n(-c4cccc(C(F)(F)F)c4)c3c2c1 [HTL-6-32, (E)-8-(2-cyano-vinyl)-1-[3-(trifluoromethyl)phenyl]oxazolo[5,4-c]quinolin-2(1H)-one] | > 200 µM | >200 µM | 235 to 237 °C |  |
| COC(=O)/C=C/c1ccc2ncc3oc(=O)n(-c4cccc(C(F)(F)F)c4)c3c2c1 [HTL-6-33, (E)-8-(2-methoxycarbonyl-vinyl)-1-[3-(trifluoromethyl)phenyl]oxazolo[5,4-c]quinolin-2(1H)-one] | > 200 µM | 71.99 ± 0.78 µM | 243 to 245 °C |  |
